Data on 22 compounds can be found in patent publication US4447608A, “Anti-cancer quinazoline derivatives” (priority 1979, dated 1984).

One may read the Ki as the dissociation constant of the complex between target and ligand, obtained from inhibition or displacement.

Like-named read-outs stand apart in the source and are kept apart here. Bounds are passed on as bounds.

Test [1] addresses T1, THYMIDYLATE SYNTHETASE (TS) (Mus musculus, UniProt P07607).
T1 construct: The cytosol of log phase L1210 cells harvested from animals was partially purified for TS I50 and Ki determinations; endogenous in cells; host or cells: L1210 cells harvested from animals (cytosol, partially purified)
Kind of test: Inhibition of thymidylate synthetase (TS), partially purified L1210 cytosol. It counts as biochemical. Particulars: Table 1, inhibitor concentration reducing TS reaction rate by 50%, read-out: THYMIDYLATE SYNTHETASE I50. The text has this:
(§1) The cytosol of log phase L1210 cells harvested from animals was partially purified for TS I50 and Ki determinations to remove from the preparation a phosphatase which degrades dUMP to deoxyuridine. (The I50 was defined as the inhibitor concentration necessary to reduce the reaction rate of TS by 50%). DHFR was purified by affinity chromatography and Ki determinations performed.

For test [2], the target named is DIHYDROFOLATE REDUCTASE (DHFR). Put plainly: Inhibition of dihydrofolate reductase (DHFR) purified by affinity chromatography. In kind it is biochemical. The settings on record: Table 1.
Source text: as §1

For the next test, the system named is L1210:R71 cells. Put plainly: Growth inhibition of methotrexate-resistant L1210:R71 cells in suspension culture, 48 h count. It counts as cell-based, mouse. The settings on record: Table 2; for IC50: Mus musculus, MTX-resistant, 48 hour count reduced to 50% of control, read-out: ID50 L1210:R71. On the procedure:
The compounds of Example 2 were evaluated in vitro as inhibitors as TS and cell growth and in vivo against the L1210 tumour. Since methotrexate (MTX) resistance is an important problem in cancer therapy, the compounds of the present invention were also investigated with this in mind.
(§2) L1210 and L1210:R71 cells were grown in continuous suspension culture in RPMI 1640 medium containing 10% horse serum (Flow Laboratories, Irvine, Scotland; UK). Cells were diluted to 10^5 /ml and additions (diluted in medium and sterilised in Millipore filtration) made prior to starting each incubation. Cell counts were performed after 24 and 48 hours using an improved Neubauer haemocytometer.

The subject of test [3] is L1210 cells. Kind of test: Growth inhibition of L1210 cells in suspension culture, 48 h count. It counts as cell-based. The settings on record: Mus musculus. On the procedure: Cells were diluted to 10^5 /ml and additions (diluted in medium and sterilised in Millipore filtration) made prior to starting each incubation. Cell counts were performed after 24 and 48 hours using an improved Neubauer haemocytometer.

The next test deals with T2, TS (Mus musculus, UniProt P07607).
T2 construct: endogenous in cells
Put plainly: Inhibition of TS purified >2,000 fold from L1210 cells by affinity chromatography. Particulars: for Relative potency ([drawing 17], I50 relative to CB 3717): relative to CB 3717 control, higher = weaker; for IC50: second results table, TS purified >2,000 fold, read-out: TS I50. It counts as biochemical.

The test system of test [4] is L1210 cells. Kind of test: Reversal of toxicity to L1210 cells in culture by thymidine. It counts as cell-based, mouse. Particulars: second results table; L1210. On the procedure:
as §2

Setting [5] is: L1210, Table 2, 48 hour count reduced to 50% of control, read-out: ID50 L1210.
Where [6] appears, read: L1210, 48 h, second results table, read-out: ID50 L1210 (Tissue culture).

T2 sequence (P07607 whole entry): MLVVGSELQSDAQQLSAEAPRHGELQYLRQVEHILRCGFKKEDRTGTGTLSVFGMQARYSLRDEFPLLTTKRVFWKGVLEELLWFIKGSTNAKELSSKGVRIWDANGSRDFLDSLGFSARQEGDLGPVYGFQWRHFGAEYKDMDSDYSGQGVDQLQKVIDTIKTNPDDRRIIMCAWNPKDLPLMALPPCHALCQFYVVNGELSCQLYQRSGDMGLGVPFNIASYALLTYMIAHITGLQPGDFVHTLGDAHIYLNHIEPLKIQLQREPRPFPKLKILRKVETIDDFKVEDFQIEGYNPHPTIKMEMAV
T1 sequence (P07607 whole entry): as above

As to `C=CCN(Cc1ccc2nc(N)nc(O)c2c1)c1ccc(C(=O)N[C@@H](CCC(=O)O)C(=O)O)cc1` [CB 3716, N-(4-(N-((2-amino-4-hydroxy-6-quinazolinyl)methyl)prop-2-enylamino)benzoyl)-L-glutamic acid], the IC50 in test [1] is 0.069 µM; with L1210:R71 cells, 100 µM; in the test with L1210 cells [3] (setting [5]), 8.8 µM. The compound also came in with an inhibition constant (Ki) in test [2] of 0.027 µM. Besides, in the test with L1210:R71 cells, the “CROSS RESISTANCE (ID50 L1210:R71/ID50 L1210)” value stood at 11.
Take `C#CCN(Cc1ccc2nc(N)nc(O)c2c1)c1ccc(C(=O)N[C@@H](CCC(=O)OCC)C(=O)OCC)cc1` [CB 3721, diethyl N-(4-(N-((2-amino-4-hydroxy-6-quinazolinyl)methyl)prop-2-ynylamino)benzoyl)-L-glutamate]: the IC50 in the test on L1210 cells [3] (setting [6]) amounted to 52 µM. On TS, the “Relative potency ([drawing 17], I50 relative to CB 3717)” value (shortened to “Relative potency”) is above 62 and the IC50 is above 3 µM.
Turning to `N#CCN(Cc1ccc2nc(N)[nH]c(=O)c2c1)c1ccc(C(=O)N[C@@H](CCC(=O)O)C(=O)O)cc1` [CB 3726], in the test on L1210 cells [3] (setting [6]), the IC50 turned out to be 5.4 µM. At TS, the “Relative potency” value stood at 15.6 and the IC50 was found to be 0.094 µM.
As for `Nc1nc2ccc(CN(CC(=O)O)c3ccc(C(=O)N[C@@H](CCC(=O)O)C(=O)O)cc3)cc2c(=O)[nH]1` [CB 3728], the “Reversal by thymidine (in culture)” value with L1210 cells [4] was “yes”. The IC50 in the test with L1210 cells [3] (setting [6]) is 27 µM. For the same compound, at TS, the “Relative potency” value is 100 and the IC50 was 1.4 µM.
For the compound `Nc1nc(O)c2cc(CN(CCCO)c3ccc(C(=O)N[C@@H](CCC(=O)O)C(=O)O)cc3)ccc2n1` [CB 3729, N-(4-(N-((2-amino-4-hydroxy-6-quinazolinyl)methyl)-3-hydroxypropylamino)-benzoyl)-L-glutamic acid], the IC50 with L1210 cells [3] (setting [6]) worked out at 54 µM; at TS it was 0.12 µM. Also, at TS, the “Relative potency” value was 8.6.
The like results for `Nc1nc(O)c2cc(CN(CCF)c3ccc(C(=O)N[C@@H](CCC(=O)O)C(=O)O)cc3)ccc2n1` [CB 3731, N-(4-(N-((2-amino-4-hydroxy-6-quinazolinyl)methyl)2-fluoroethylamino)benzoyl)-L-glutamic acid] were, in that order, 16 µM, 0.095 µM and 6.8.
On the same counts, the results for `Nc1nc(O)c2cc(CN(CC(=O)c3ccccc3)c3ccc(C(=O)N[C@@H](CCC(=O)O)C(=O)O)cc3)ccc2n1` [CB 3733, N-(4-(N-((2-amino-4-hydroxy-6-quinazolinyl)methyl)phenacylamino)benzoyl)-L-glutamic acid] are 100 µM, 1.64 µM and 40.
`NC(=O)CN(Cc1ccc2nc(N)[nH]c(=O)c2c1)c1ccc(C(=O)N[C@@H](CCC(=O)O)C(=O)O)cc1` [CB 3734]: the “Reversal by thymidine (in culture)” value in the test with L1210 cells [4] is given as “yes”. The IC50 in the test with L1210 cells [3] (setting [6]) turned out to be 87 µM. For the same compound, at TS, the “Relative potency” value was above 62.5 and the IC50 is above 3 µM.
As to `Nc1nc2ccc(CN(CCBr)c3ccc(C(=O)N[C@@H](CCC(=O)O)C(=O)O)cc3)cc2c(=O)[nH]1` [CB 3735], the IC50 with L1210 cells [3] (setting [6]) stood at 52 µM. Besides, on TS, the “Relative potency” value was 23 and the IC50 came to 1.1 µM.
On the same counts, the results for `Nc1nc2ccc(CN(CC3CO3)c3ccc(C(=O)N[C@@H](CCC(=O)O)C(=O)O)cc3)cc2c(=O)[nH]1` (stereo partly drawn) [CB 3736] are above 300 µM, 7.6 and 0.31 µM.
As for `C#CCN(Cc1ccc2nc(N)[nH]c(=O)c2c1)c1ccc(C(=O)N[C@@H](CC(=O)O)C(=O)O)cc1` [CB 3737], the IC50 in the test on L1210 cells [3] (setting [6]) is above 100 µM. Also, on TS, the “Relative potency” value worked out at 1.6 and the IC50 came out at 0.066 µM.
With `C#CCN(Cc1ccc2nc(N)[nH]c(=O)c2c1)c1ccc(C(=O)N[C@@H](CCC(=O)O)C(=O)O)c(C)c1` [CB 3738], the IC50 in the test with L1210 cells [3] (setting [6]) came to 24 µM. On TS, the “Relative potency” value amounted to 1.1 and the IC50 worked out at 0.047 µM.
For the compound `C#CCN(Cc1ccc2nc(N)[nH]c(=O)c2c1)c1ccc(C(=O)N[C@@H](CCC(=O)O)C(=O)O)c(Cl)c1` [CB 3739], the IC50 in the test on L1210 cells [3] (setting [6]) was 17 µM.
For the compound `Nc1nc(O)c2cc(CN(Cc3c[nH]c(=O)[nH]c3=O)c3ccc(C(=O)N[C@@H](CCC(=O)O)C(=O)O)cc3)ccc2n1` [CB 3743, N-(4-(N-(2-amino-4-hydroxy-6-quinazolinyl)methyl-N-(5-uracilyl)methyl-amino)benzoyl)-L-glutamic acid], the “Reversal by thymidine (in culture)” value with L1210 cells [4] is reported as “yes”. Besides, the IC50 in the test with L1210 cells [3] (setting [6]) was 4.7 µM; at TS, above 1 µM. Further, the “Relative potency” value at TS is above 22.
In the case of `CCOC(=O)CC[C@H](NC(=O)c1ccc(N(CC(=O)c2ccccc2)Cc2ccc3nc(N)nc(O)c3c2)cc1)C(=O)OCC` [CB 3744, diethyl N-(4-(N-((2-amino-4-hydroxy-6-quinazolinyl)methyl)phenacylamino)benzoyl)-L-glutamate], the IC50 in the test with L1210 cells [3] (setting [6]) is above 100 µM.
The same measure, in the same setting: with `CCOC(=O)CC[C@H](NC(=O)c1ccc(N(CC(=O)OCC)Cc2ccc3nc(N)[nH]c(=O)c3c2)cc1)C(=O)OCC` [CB 3745] the figure was above 100 µM; with `CCOC(=O)CC[C@H](NC(=O)c1ccc(N(CCBr)Cc2ccc3nc(N)[nH]c(=O)c3c2)cc1)C(=O)OCC` [CB 3746], above 100 µM; with `CCOC(=O)CC[C@H](NC(=O)c1ccc(N(Cc2ccc3nc(N)[nH]c(=O)c3c2)CC(O)CBr)cc1)C(=O)OCC` (stereo partly drawn) [CB 3747], above 100 µM.
The same measure, in the same setting: with `C#CCN(Cc1ccc2nc(N)[nH]c(=O)c2c1)c1ccc(C(=O)N[C@@H](CC(=O)OCC)C(=O)OCC)cc1` [CB 3748] the figure was 100 µM; with `C#CCN(Cc1ccc2nc(N)[nH]c(=O)c2c1)c1ccc(C(=O)N[C@@H](CCC(=O)OCC)C(=O)OCC)c(C)c1` [CB 3749], 100 µM.
Still for that read-out and setting: with `C#CCN(Cc1ccc2nc(N)[nH]c(=O)c2c1)c1ccc(C(=O)N[C@@H](CCC(=O)OCC)C(=O)OCC)c(Cl)c1` [CB 3750] the figure was 18 µM.
Take `CCCN(Cc1ccc2nc(N)[nH]c(=O)c2c1)c1ccc(C(=O)N[C@@H](CCC(=O)O)C(=O)O)cc1` [Comparison, reference compound]: the IC50 in test [1] was 0.17 µM; in the test with L1210:R71 cells it was 315 µM; in the test with L1210 cells [3] (setting [5]), 33 µM. In addition, in test [2], the Ki was 0.02 µM. Further, in the test with L1210:R71 cells, the “CROSS RESISTANCE (ID50 L1210:R71/ID50 L1210)” value turned out to be 10.
